In patent publication US20130178472A1, “ARYLSULFONAMIDE PYRIDINE-PYRIDINONE DERIVATIVES, PREPARATION OF SAME, AND THERAPEUTIC USE THEREOF” (SANOFI, priority 2010, published 2013):
Where a name gives a salt, the structure may show the parent alone.

Test system: not given
Experiment: not given
Conditions: not given

| melting point | SMILES |
| --- | --- |
| > 260 °C | CCn1c(N)c(C(=O)NC)c(=O)c2ccc(-c3ccc(NS(=O)(=O)c4ccc(F)cc4)c(F)c3)nc21 [compound No. 24, 2-amino-1-ethyl-7-(3-fluoro-4-{[(4-fluorophenyl)sulfonyl]amino}phenyl)-N-methyl-4-oxo-1,4-dihydro-1,8-naphthyridine-3-carboxamide] |
| > 260 °C | CCn1c(N)c(C(=O)NC)c(=O)c2ccc(-c3ccc(NS(=O)(=O)c4ccccc4F)c(F)c3)nc21 [compound No. 20, 2-amino-1-ethyl-7-(3-fluoro-4-{[(2-fluorophenyl)sulfonyl]amino}phenyl)-N-methyl-4-oxo-1,4-dihydro-1,8-naphthyridine-3-carboxamide] |
| > 260 °C | CCn1c(N)c(C(=O)NC)c(=O)c2ccc(-c3ccc(NS(=O)(=O)c4ccc(F)c(F)c4)c(F)c3)nc21 [compound No. 23, 2-amino-7-(4-{[(3,4-difluorophenyl)sulfonyl]amino}-3-fluorophenyl)-1-ethyl-N-methyl-4-oxo-1,4-dihydro-1,8-naphthyridine-3-carboxamide] |
| 239 °C | CCn1c(N)c(C(=O)NC)c(=O)c2ccc(-c3ccc(NS(=O)(=O)c4cccc(Cl)c4Cl)cc3Cl)nc21 [compound No. 13, 2-amino-7-(2-chloro-4-{[(2,3-dichlorophenyl)sulfonyl]amino}phenyl)-1-ethyl-N-methyl-4-oxo-1,4-dihydro-1,8-naphthyridine-3-carboxamide] |
| 210 °C | CCn1c(N)c(C(=O)NC)c(=O)c2ccc(-c3ccc(NS(=O)(=O)c4cccc(Cl)c4Cl)cc3)nc21 [compound No. 17, 2-amino-7-(4-{[(2,3-dichlorophenyl)sulfonyl]amino}phenyl)-1-ethyl-N-methyl-4-oxo-1,4-dihydro-1,8-naphthyridine-3-carboxamide] |
| 220 to 223 °C | CCn1c(N)c(C(=O)NC)c(=O)c2ccc(-c3ccc(NS(=O)(=O)Cc4cccnc4)c(F)c3)nc21 (as salt: HCl) [compound No. 1, 2-amino-1-ethyl-7-(3-fluoro-4-{[(pyridin-3-ylmethyl)sulfonyl]amino}phenyl)-N-methyl-4-oxo-1,4-dihydro-1,8-naphthyridine-3-carboxamide] |
| 260 °C | CCn1c(N)c(C(=O)NC)c(=O)c2ccc(-c3ccc(NS(=O)(=O)Cc4ccccn4)c(F)c3)nc21 (as salt: HCl) [compound No. 27, 2-amino-1-ethyl-7-(3-fluoro-4-{[(pyridin-2-ylmethyl)sulfonyl]amino}phenyl)-N-methyl-4-oxo-1,4-dihydro-1,8-naphthyridine-3-carboxamide] |
| > 260 °C | C=CS(=O)(=O)Nc1ccc(-c2ccc3c(=O)c(C(=O)NC)c(N)n(CC)c3n2)cc1F [compound No. 3, 2-amino-7-{4-[(ethenylsulfonyl)amino]-3-fluorophenyl}-1-ethyl-N-methyl-4-oxo-1,4-dihydro-1,8-naphthyridine-3-carboxamide] |
| > 300 °C | CCn1c(N)c(C(=O)NC)c(=O)c2ccc(-c3ccc(NS(=O)(=O)c4cn(C)cn4)c(F)c3)nc21 (as salt: HCl) [compound No. 6, 2-amino-1-ethyl-7-(3-fluoro-4-{[(1-methyl-1H-imidazol-4-yl)sulfonyl]amino}phenyl)-N-methyl-4-oxo-1,4-dihydro-1,8-naphthyridine-3-carboxamide] |
| 165 to 167 °C | CCCCS(=O)(=O)Nc1ccc(-c2ccc3c(=O)c(C(=O)NC)c(N)n(CC)c3n2)cc1F [compound No. 7, 2-amino-7-{4-[(butylsulfonyl)amino]-3-fluorophenyl}-1-ethyl-N-methyl-4-oxo-1,4-dihydro-1,8-naphthyridine-3-carboxamide] |
| > 260 °C | CCn1c(N)c(C(=O)NC)c(=O)c2ccc(-c3ccc(NS(=O)(=O)Cc4cccc(N)c4)c(F)c3)nc21 (as salt: HCl) [compound No. 5, 2-amino-7-(4-{[(3-aminobenzyl)sulfonyl]amino}-3-fluorophenyl)-1-ethyl-N-methyl-4-oxo-1,4-dihydro-1,8-naphthyridine-3-carboxamide] |
| > 260 °C | CCn1c(N)c(C(=O)NC)c(=O)c2ccc(-c3ccc(NS(=O)(=O)c4cccc(OC)c4)c(F)c3)nc21 [compound No. 25, 2-amino-1-ethyl-7-(3-fluoro-4-{[(3-methoxyphenyl)sulfonyl]amino}phenyl)-N-methyl-4-oxo-1,4-dihydro-1,8-naphthyridine-3-carboxamide] |
| 321 °C | CCn1c(N)c(C(=O)NC)c(=O)c2ccc(-c3ccc(NS(=O)(=O)c4c(Cl)cccc4Cl)c(F)c3)nc21 [compound No. 11, 2-amino-7-(4-{[(2,6-dichlorophenyl)sulfonyl]amino}-3-fluorophenyl)-1-ethyl-N-methyl-4-oxo-1,4-dihydro-1,8-naphthyridine-3-carboxamide] |
| > 260 °C | CCn1c(N)c(C(=O)NC)c(=O)c2ccc(-c3ccc(NS(=O)(=O)c4ccc(N5CCOCC5)nc4)c(F)c3)nc21 (as salt: HCl) [compound No. 26, 2-amino-1-ethyl-7-[3-fluoro-4-({[6-(morpholin-4-yl)pyridin-3-yl]sulfonyl}amino)phenyl]-N-methyl-4-oxo-1,4-dihydro-1,8-naphthyridine-3-carboxamide] |
| > 260 °C | CCn1c(N)c(C(=O)NC)c(=O)c2ccc(-c3ccc(NS(=O)(=O)c4ccccc4Cl)cc3)nc21 [compound No. 19, 2-amino-7-(4-{[(2-chlorophenyl)sulfonyl]amino}phenyl)-1-ethyl-N-methyl-4-oxo-1,4-dihydro-1,8-naphthyridine-3-carboxamide] |
| 268 to 270 °C | CCn1c(N)c(C(=O)NC)c(=O)c2ccc(-c3ccc(NS(=O)(=O)CCN(C)C)c(F)c3)nc21 (as salt: HCl) [compound No. 4, 2-amino-7-[4-({[2-(dimethylamino)ethyl]sulfonyl}amino)-3-fluorophenyl]-1-ethyl-N-methyl-4-oxo-1,4-dihydro-1,8-naphthyridine-3-carboxamide] |
| > 260 °C | CCn1c(N)c(C(=O)NC)c(=O)c2ccc(-c3ccc(NS(=O)(=O)c4ccc(Cl)cc4)c(F)c3)nc21 [compound No. 21, 2-amino-7-(4-{[(4-chlorophenyl)sulfonyl]amino}-3-fluorophenyl)-1-ethyl-N-methyl-4-oxo-1,4-dihydro-1,8-naphthyridine-3-carboxamide] |
| 299 °C | CCn1c(N)c(C(=O)NC)c(=O)c2ccc(-c3ccc(NS(=O)(=O)c4cccc(Cl)c4Cl)c(C)c3)nc21 [compound No. 15, 2-amino-7-(4-{[(2,3-dichlorophenyl)sulfonyl]amino}-3-methylphenyl)-1-ethyl-N-methyl-4-oxo-1,4-dihydro-1,8-naphthyridine-3-carboxamide] |
| 323 °C | CCn1c(N)c(C(=O)NC)c(=O)c2ccc(-c3ccc(NS(=O)(=O)c4cc(Cl)ccc4Cl)cc3Cl)nc21 [compound No. 12, 2-amino-7-(2-chloro-4-{[(2,5-dichlorophenyl)sulfonyl]amino}phenyl)-1-ethyl-N-methyl-4-oxo-1,4-dihydro-1,8-naphthyridine-3-carboxamide] |
| > 300 °C | CCn1c(N)c(C(=O)NC)c(=O)c2ccc(-c3ccc(NS(C)(=O)=O)cc3)nc21 [compound No. 16, 2-amino-1-ethyl-N-methyl-7-{4-[(methylsulfonyl)amino]phenyl}-4-oxo-1,4-dihydro-1,8-naphthyridine-3-carboxamide] |
| > 260 °C | CCn1c(N)c(C(=O)NC)c(=O)c2ccc(-c3ccc(NS(=O)(=O)c4cccc(Cl)c4)c(F)c3)nc21 [compound No. 22, 2-amino-7-(4-{[(3-chlorophenyl)sulfonyl]amino}-3-fluorophenyl)-1-ethyl-N-methyl-4-oxo-1,4-dihydro-1,8-naphthyridine-3-carboxamide] |
| 256 °C | CCn1c(N)c(C(=O)NC)c(=O)c2ccc(-c3ccc(NS(=O)(=O)c4cccc(F)c4)c(F)c3)nc21 [compound No. 2, 2-amino-1-ethyl-7-(3-fluoro-4-{[(3-fluorophenyl)sulfonyl]amino}phenyl)-N-methyl-4-oxo-1,4-dihydro-1,8-naphthyridine-3-carboxamide] |

Biological target: T1, fusion protein Tel/PDGF-R beta (BaF3 Tel/PDGF cells) (Homo sapiens, UniProt P09619)
T1 construct: the transmembrane and intracellular part of the PDGF-R beta receptor; N-terminal part of transcription factor Tel (ETV6, own knowledge: UniProt P41212), containing the oligomerization domain; expressed in transfected cells; host or cells: murine hematopoietic cell line BaF/3 (BaF3 Tel/PDGF); the other entry of the earlier key: ETV6 (P41212, Transcription factor ETV6)
T1 sequence (P09619 with tags, fused parts or gaps): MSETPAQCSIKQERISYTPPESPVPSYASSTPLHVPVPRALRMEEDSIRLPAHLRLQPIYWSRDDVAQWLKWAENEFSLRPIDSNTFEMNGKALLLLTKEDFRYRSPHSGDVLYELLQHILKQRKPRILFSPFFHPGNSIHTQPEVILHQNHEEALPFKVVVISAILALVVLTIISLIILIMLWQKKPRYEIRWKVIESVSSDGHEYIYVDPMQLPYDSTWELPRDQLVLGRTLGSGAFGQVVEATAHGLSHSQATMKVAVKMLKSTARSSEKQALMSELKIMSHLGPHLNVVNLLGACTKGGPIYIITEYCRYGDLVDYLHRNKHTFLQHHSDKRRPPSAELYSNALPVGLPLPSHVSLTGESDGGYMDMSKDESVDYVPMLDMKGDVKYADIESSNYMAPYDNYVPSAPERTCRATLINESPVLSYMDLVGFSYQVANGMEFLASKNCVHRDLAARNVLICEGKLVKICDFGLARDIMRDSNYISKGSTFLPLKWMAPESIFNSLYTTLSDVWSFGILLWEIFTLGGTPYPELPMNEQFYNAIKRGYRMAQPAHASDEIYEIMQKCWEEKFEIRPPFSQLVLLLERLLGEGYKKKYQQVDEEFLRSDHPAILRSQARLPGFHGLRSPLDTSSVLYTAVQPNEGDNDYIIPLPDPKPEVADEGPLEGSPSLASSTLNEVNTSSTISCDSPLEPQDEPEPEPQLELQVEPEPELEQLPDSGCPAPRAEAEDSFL
Experiment: Inhibition of PDGF beta receptor tyrosine kinase activity: proliferation of BaF3 Tel/PDGF cells
Type: cell-based, murine
Conditions: 72 h incubation, viable cells by cellular ATP (CellTiter-Glo); read-out: IC50, concentration which inhibits 50% of the proliferation of the Baf3 tel/PDGF cells
Text: The inhibitory activity on the PDGF receptor kinases is given by the concentration which inhibits 50% of the proliferation activity of Baf3 tel/PDGF cells respectively. The inhibitory activity on p70S6 kinase is given by the concentration which inhibits 50% of the phosphorylation of the peptide substrate derived from the S6 ribosomal protein (AKRRRLSSLRA, Upstate).
Measurement of the inhibition of the PDGF beta receptor (PDGF-Rβ) tyrosine kinase activity (Baf-3 tel/PDGFRβ):
This test consists in evaluating the effects of the compounds on the PDGF beta receptor tyrosine kinase activity.
The inhibitory effect of the compounds according to the invention toward the PDGF-R receptor tyrosine kinase activity was evaluated on the hematopoietic murine cell line BaF/3 transfected with a plasmid encoding the fusion protein Tel/PDGF-R beta. This fusion protein is found in chronic myelomonocytic myeloid leukemias (CMML). It comprises the N-terminal part of the transcription factor Tel and the transmembrane and intracellular part of the PDGF-R beta receptor. This fusion protein is present in dimerized form (presence of an oligomerization domain in the N-terminal part of Tel) and therefore leads to the constitutive activity of the PDGF-R beta kinase domain. This BaF3 Tel/PDGF line has been described in the literature several times and in particular in detail in the article by CARROLL, M. et al., PNAS, 1996, 93, 14845-14850, CARROLL, M. et al., Blood 2002, 99, 14845-14850.
The BaF3 Tel/PDGF cells are washed with phosphate buffer and inoculated in 96-well plates, at the density of 5×10^4 cells/ml ([…]), in RPMI 1640 containing 10% FCS, in the presence or absence of the compounds to be tested. After 72 h of incubation, the viable cells are quantified by measuring the cellular ATP using the kit CellTiter-Glo®(Promega, Cat G7571). The cells are treated according to the instructions given by the kit supplier and the luminescence is measured with the aid of a Luminoskan (Ascent, Labsystem) with the following parameters: measurement: single; integration time: 1000 ms, lag time: 5 s.
It is thus apparent that the compounds according to the invention have an inhibitory activity on the PDGF-R beta tyrosine kinase activity. This activity is given by the concentration which inhibits 50% of the proliferation of the Baf3 tel/PDGF cells (IC50).

| SMILES | IC50 |
| --- | --- |
| CCn1c(N)c(C(=O)NC)c(=O)c2ccc(-c3ccc(NS(=O)(=O)c4ccc(F)cc4)c(F)c3)nc21 [compound No. 24, 2-amino-1-ethyl-7-(3-fluoro-4-{[(4-fluorophenyl)sulfonyl]amino}phenyl)-N-methyl-4-oxo-1,4-dihydro-1,8-naphthyridine-3-carboxamide] | 24 nM |
| CCn1c(N)c(C(=O)NC)c(=O)c2ccc(-c3ccc(NS(=O)(=O)c4ccccc4F)c(F)c3)nc21 [compound No. 20, 2-amino-1-ethyl-7-(3-fluoro-4-{[(2-fluorophenyl)sulfonyl]amino}phenyl)-N-methyl-4-oxo-1,4-dihydro-1,8-naphthyridine-3-carboxamide] | 280 nM |
| CCn1c(N)c(C(=O)NC)c(=O)c2ccc(-c3ccc(NS(=O)(=O)c4cccc(F)c4)c(F)c3)nc21 [compound No. 2, 2-amino-1-ethyl-7-(3-fluoro-4-{[(3-fluorophenyl)sulfonyl]amino}phenyl)-N-methyl-4-oxo-1,4-dihydro-1,8-naphthyridine-3-carboxamide] | 36 nM |
